Experimental findings from patent publication US12247018B2, “Aryl-n-aryl derivatives for treating a RNA virus infection” (ABIVAX, priority 2018, dated 2025) are described below.

Broadly, the EC50 is the concentration giving half of the maximal effect.

This test relates to RSV A2. The experiment in a line: RSV inhibition (cytopathic effect) in HEp-2 cells using Viral ToxGlo assay. In kind it is cell-based. Conditions: human respiratory syncytial virus; RSV A2, HEp-2 cells, MOI 0.5, 72 h p.i. On the procedure: Protocol for Screening Antiviral Compounds for RSV Inhibition and Cytotoxicity Using Viral ToxGlo Assay
HEp-2 cells were maintained in Eagle's minimum essential medium (EMEM) with Earle's BSS adjusted to contain 2 mM L-glutamine, 10% fetal bovine serum, 100 U/ml penicillin and 100 μg/ml streptomycin. For the purposes of the screening assay they were grown to 90% confluency, trypsinized and recovered. The trypsin was neutralised with cell culture media and cells were centrifuged at 150×g for 5 minutes before discarding the supernatant and resuspending cell pellet in assay media (EMEM with Earle's BSS adjusted to contain 2 mM L-glutamine, 2% fetal bovine serum and 100 U/ml penicillin and 100 μg/ml streptomycin). The cells were seeded into white clear-bottomed cell culture plates at a density of 1.5×10^4 cells/well in 50 μl and 4×10^3 cells/well in 25 μl for 96 well plates and 384 well plates respectively. For the media/background control column assay media only was added. Cell plates were placed in a humid chamber and incubated overnight at 37° C./5% CO2. After overnight incubation cells were checked for confluency and healthy appearance.
Test articles were made up at 10× test concentration in a maximum DMSO concentration of 10% (final assay concentration maximal 1% DMSO) and added to the cell plates in volumes of 10 μl for 96 well plates and 5 μl for 384 well plates. For cell control and virus control wells the test article solvent only was added. Virus or assay media for cytotoxicity test wells and media/cell control wells was added immediately after test articles at an MOI of 0.5, 40 or 20 μl for 96 and 384 well plates respectively. Virus suspension was prepared by thawing RSV A2 frozen stocks and diluting to the required concentration of plaque forming units in assay media on ice.
Cell plates were further incubated inside a humid chamber for 72 h p.i at 37° C./5% CO2. After the incubation period cells were observed under the microscope to check for characteristic cytopathic effect in virus control wells and healthy cells in the cell control wells. After plates were adjusted to room temperature 20/40 μl Viral ToxGlo (Promega) was added to each well of the 384/96 well cell plates. Plates were incubated at room temperature, protected from light on a plate rocker for 20 minutes before measuring the luminescence on a spectrophotometer (Biotek Synergy HTX).
Turning to `CC(C)NC(=O)c1cccc(Nc2ccc(C(=O)/N=C3\NCCCN3C)cc2C2CC2)c1` [compound 108, 3-cyclopropyl-N-[(2E)-1-methyl-1,3-diazinan-2-ylidene]-4-({3-[(propan-2-yl)carbamoyl]phenyl}amino)benzamide], the EC50 turned out to be 0.077 µM.

Take `CC(C)OCCOc1cccc(Nc2ccc(C(=O)N=C3NCCCN3)cc2C2CC2)c1` [compound 139, 3-cyclopropyl-N-(1,3-diazinan-2-ylidene)-4-({3-[2-(propan-2-yloxy)ethoxy]phenyl}amino)benzamide]: the concentration for a half-maximal effect (EC50) was determined as 0.34 µM.

Consider `O=C1CCN/C(=N\C(=O)c2ccc(Nc3cccc(C(=O)N4CCOCC4)c3Cl)c(C3CC3)c2)N1` [compound 95, 4-{[2-chloro-3-(morpholine-4-carbonyl)phenyl]amino}-3-cyclopropyl-N-[(2E)-4-oxo-1,3-diazinan-2-ylidene]benzamide], for which the EC50 turned out to be 0.019 µM. For `CCC(C)NC(=O)c1cccc(Nc2ccc(C(=O)N=C3NCCCN3)cc2C2CC2)c1` (stereo not shown) [compound 101, 4-({3-[(butan-2-yl)carbamoyl]phenyl}amino)-3-cyclopropyl-N-(1,3-diazinan-2-ylidene)benzamide], the EC50 turned out to be 0.04 µM.

Take `O=C(N=C1NCCCN1)c1ccc(Nc2cccc(OC3CCC3)c2)c(C2CC2)c1` [compound 129, 4-[(3-cyclobutoxyphenyl)amino]-3-cyclopropyl-N-(1,3-diazinan-2-ylidene)benzamide]: the EC50 came to 0.223 µM. For `O=C(N=C1NCCCN1)c1ccc(Nc2cccc(C(=O)N3CCOCC3)c2)c(C2CC2)c1` [compound 158, 3-cyclopropyl-N-(1,3-diazinan-2-ylidene)-4-{[3-(morpholine-4-carbonyl)phenyl]amino}benzamide] the value was 1.03 µM; for `O=C1CCN/C(=N\C(=O)c2ccc(Nc3cccc(C(=O)NC4CC4)c3)c(C3CC3)c2)N1` [compound 145, 3-cyclopropyl-4-{[3-(cyclopropylcarbamoyl)phenyl]amino}-N-[(2E)-4-oxo-1,3-diazinan-2-ylidene]benzamide], 0.421 µM.

`O=C(N=C1NCCCN1)c1ccc(Nc2cccc(C(=O)NC3CC(F)(F)C3)c2)c(C2CC2)c1` [compound 152, 3-cyclopropyl-N-(1,3-diazinan-2-ylidene)-4-({3-[(3,3-difluorocyclobutyl)carbamoyl]phenyl}amino)benzamide]: the EC50 is 0.593 µM.

As to `CC(C)CCCNC(=O)c1cccc(Nc2ccc(C(=O)N=C3NCCCN3)cc2C2CC2)c1` [compound 105, 3-cyclopropyl-N-(1,3-diazinan-2-ylidene)-4-({3-[(4-methylpentyl)carbamoyl]phenyl}amino)benzamide], the EC50 stood at 0.062 µM. For `O=C1CCN/C(=N\C(=O)c2ccc(Nc3cccc(OCC4CCCCO4)c3)c(C3CC3)c2)N1` (stereo not shown) [compound 151, 3-cyclopropyl-4-({3-[(oxan-2-yl)methoxy]phenyl}amino)-N-[(2E)-4-oxo-1,3-diazinan-2-ylidene]benzamide] the value was 0.525 µM. For `O=C(N=C1NCCCN1)c1ccc(Nc2cccc(S(=O)(=O)CCCC3CCCCC3)c2)c(C2CC2)c1` [compound 143, 4-{[3-(3-cyclohexylpropanesulfonyl)phenyl]amino}-3-cyclopropyl-N-(1,3-diazinan-2-ylidene)benzamide], the EC50 was 0.398 µM. As for `O=C1CCN/C(=N\C(=O)c2ccc(Nc3cccc(OCC4CCCOC4)c3)c(C3CC3)c2)N1` (stereo not shown) [compound 134, 3-cyclopropyl-4-({3-[(oxan-3-yl)methoxy]phenyl}amino)-N-[(2E)-4-oxo-1,3-diazinan-2-ylidene]benzamide], the EC50 was 0.265 µM. On to `O=C1CCN/C(=N\C(=O)c2ccc(Nc3cccc(C(=O)N4CCOCC4)c3)c(C3CC3)c2)N1` [compound 164, 3-cyclopropyl-4-{[3-(morpholine-4-carbonyl)phenyl]amino}-N-[(2E)-4-oxo-1,3-diazinan-2-ylidene]benzamide], for which the concentration giving a half-maximal response (EC50) turned out to be 1.5 µM. With `Cc1cc(C(=O)N=C2NCCCN2)ccc1Nc1cccc(OCCCC2CCCCC2)c1` [compound 156, 4-{[3-(3-cyclohexylpropoxy)phenyl]amino}-N-(1,3-diazinan-2-ylidene)-3-methylbenzamide], the EC50 came out at 0.966 µM. Turning to `CC(C)CCCOc1cccc(Nc2ccc(C(=O)N=C3NCCCN3)cc2C2CC2)c1` [compound 132, 3-cyclopropyl-N-(1,3-diazinan-2-ylidene)-4-({3-[(4-methylpentyl)oxy]phenyl}amino)benzamide], the EC50 was 0.259 µM. For `O=C(N=C1NCCCN1)c1ccc(Nc2cccc(C(=O)NC3CCOCC3)c2)c(C2CC2)c1` [compound 157, 3-cyclopropyl-N-(1,3-diazinan-2-ylidene)-4-({3-[(oxan-4-yl)carbamoyl]phenyl}amino)benzamide] the value was 1.03 µM; for `O=C(N=C1NCCCN1)c1ccc(Nc2cccc(OC3COC3)c2)c(C2CC2)c1` [compound 144, 3-cyclopropyl-N-(1,3-diazinan-2-ylidene)-4-{[3-(oxetan-3-yloxy)phenyl]amino}benzamide], 0.413 µM. As to `CC(C)CCNC(=O)c1ccccc1Nc1ccc(C(=O)N=C2NCCCN2)cc1C1CC1` [compound 147, 3-cyclopropyl-N-(1,3-diazinan-2-ylidene)-4-({2-[(3-methylbutyl)carbamoyl]phenyl}amino)benzamide], the EC50 is 0.46 µM. For `O=C(N=C1NCCCN1)c1ccc(Nc2cccc(OCC3CCCCC3)c2)c(C2CC2)c1` [compound 127, 4-{[3-(cyclohexylmethoxy)phenyl]amino}-3-cyclopropyl-N-(1,3-diazinan-2-ylidene)benzamide] the value was 0.172 µM; for `CC1COCCN1C(=O)c1cccc(Nc2ccc(C(=O)/N=C3\NCCC(=O)N3)cc2C2CC2)c1Cl` (stereo not shown) [compound 91, 4-{[2-chloro-3-(3-methylmorpholine-4-carbonyl)phenyl]amino}-3-cyclopropyl-N-[(2E)-4-oxo-1,3-diazinan-2-ylidene]benzamide], 0.002 µM. On to `CC(NC(=O)c1cccc(Nc2ccc(C(=O)N=C3NCCCN3)cc2C2CC2)c1)C(F)(F)F` (stereo not shown) [compound 109, 3-cyclopropyl-N-(1,3-diazinan-2-ylidene)-4-({3-[(1,1,1-trifluoropropan-2-yl)carbamoyl]phenyl}amino)benzamide], for which the concentration for a half-maximal effect (EC50) worked out at 0.079 µM.

On to `O=C1CCN/C(=N\C(=O)c2ccc(Nc3cccc(OCCCC4CCCCC4)c3)c(C3CC3)c2)N1` [compound 97, 4-{[3-(3-cyclohexylpropoxy)phenyl]amino}-3-cyclopropyl-N-[(2E)-4-oxo-1,3-diazinan-2-ylidene]benzamide], for which the EC50 turned out to be 0.025 µM. Consider `O=C(N=C1NCCCN1)c1ccc(Nc2cccc(-n3cc(CC4CCCCC4)nn3)c2)c(C2CC2)c1` [compound 119, 4-({3-[4-(cyclohexylmethyl)-1H-1,2,3-triazol-1-yl]phenyl}amino)-3-cyclopropyl-N-(1,3-diazinan-2-ylidene)benzamide], for which the EC50 amounted to 0.13 µM.

`O=C(CCC1CCCCC1)Nc1cc(Nc2ccc(C(=O)N=C3NCCCN3)cc2C(F)(F)F)ccc1F` [compound 148, 4-{[3-(3-cyclohexylpropanamido)-4-fluorophenyl]amino}-N-(1,3-diazinan-2-ylidene)-3-(trifluoromethyl)benzamide]: the EC50 is 0.463 µM. For `O=C1CCN/C(=N\C(=O)c2ccc(Nc3cccc(OCC4CCOCC4)c3)c(C3CC3)c2)N1` [compound 146, 3-cyclopropyl-4-({3-[(oxan-4-yl)methoxy]phenyl}amino)-N-[(2E)-4-oxo-1,3-diazinan-2-ylidene]benzamide] the value was 0.439 µM.
